The record followed here is the OPERA property sets (Mansouri et al. 2018).

Compound `FC(F)(c1ccccc1)C(F)(F)c1ccccc1` registered a logP of 5. The same measure for `CCCC(=O)c1ccccc1`: 2.77; for `O=C(c1ccc(Cl)cc1Cl)c1ccc2n1CCC2C(=O)O` (centres undefined): 3.56; for `CCN1CC(C(O)C(CC2CCCCC2)NC(=O)C(Cc2cnc[nH]2)NC(=O)C(CC(=O)N(C)CCOCOC)Cc2ccccc2)OC1=O` (centres undefined): 2.49. `Cc1cc(C)cc(NS(=O)(=O)c2ccc(N)cc2)c1` yielded a logP of 2.52. To `O=[N+]([O-])c1cc(F)ccc1F` belongs 1.86. In turn, `Nc1ccc(S(=O)(=O)Nc2ccccc2[N+](=O)[O-])cc1` displayed a logP of 2.11.

With `CCC(C)CC`, the logP worked out at 3.6. The compound `O=C(NC12CC3CC(CC(C3)C1)C2)C(O)c1ccccc1` (centres undefined) gave a logP of 3.09.

Regarding `CCOC(=O)c1cnc(-c2ccc(OCC(O)CNCCc3ccc(OC)c(OC)c3)cc2)[nH]1` (centres undefined), the logP was found to be 2.3. To `N[C@@H](Cc1ccc(O)c(O)c1)C(=O)O` belongs -2.39; to `c1ccc(CC2=NCCN2)cc1`, 2.65; to `CCc1cccc(C2C(=O)c3ccccc3C2=O)c1`, 3.92. As for `COCC(O)Cn1cc(Br)nc1[N+](=O)[O-]` (centres undefined), the logP was 0.46. The same measure for `Nc1ncc(Cc2cc3c(cc2Br)OCO3)c(N)n1`: 2.48.

On to `Cc1ccc(S(=O)(=O)NC(=O)NN2CCCCC2)cc1`, for which the logP came out at 1.34. The compound `C[C@@H]1CC2=CC(=O)CC[C@@H]2[C@H]2CC[C@@]3(C)[C@@H](CC[C@]3(C)O)[C@@H]21` gave a logP of 3.19. As to `O=c1[nH]c2ccccc2cc1-c1ccccc1`, the logP was found to be 2.99. The compound `C=C(C)C(=O)OCc1ccccc1` yielded a logP of 2.53. To `CCCCNC(=O)NCCNCC(O)COc1ccc(-c2ncc(C)[nH]2)cc1` (centres undefined) belongs 1.24; to `CCN(CC)CCNC(=O)c1cc(Br)c(N)cc1OC`, 2.83; to `CCc1cccc2ccccc12`, 4.4. As for `CCC(C(=O)OCc1ccccc1)C(COC(=O)c1cccc(Cl)c1)Cc1cncn1C` (centres undefined), the logP came out at 5.08. To `CCCCCCCCCCCCCc1cccc(O)c1` belongs 8.84; to `OC(CN1CCOCC1)(c1ccc(F)cc1)c1ccc(-c2ccncc2)cc1` (centres undefined), 2.82; to `CC1CC(C)(C)CC(c2ccccc2)(N2CCCCC2)C1` (centres undefined), 6.35. To `CCCc1ccc(N)cc1` belongs 2.4; to `Nc1nc2c(ncn2COC(CO)CO)c(=O)[nH]1`, -1.66; to `c1ccc(-c2cc3ccccc3cn2)nc1`, 3.05.

In the case of `CNC(=O)COc1ccc(OCC(O)CNC(C)C)cc1` (centres undefined), the logP came to 0.56. The same measure for `CC1=C(C(=O)Nc2ccccc2)S(=O)CCO1` (centres undefined): 0.64; for `CC1(C)[C@@H](O[C@H]2O[C@H](C(=O)O)[C@@H](O)[C@H](O)[C@H]2O[C@@H]2O[C@H](C(=O)O)[C@@H](O)[C@H](O)[C@H]2O)CC[C@]2(C)[C@H]3C(=O)C=C4[C@@H]5C[C@@](C)(C(=O)O)CC[C@]5(C)CC[C@@]4(C)[C@]3(C)CC[C@@H]12`: 2.8. The same measure for `CCCCCCC(C)(C)c1ccc(C2CC(O)CCC2C)c(O)c1` (centres undefined): 7.49; for `Cc1c(Br)cccc1N=C1NCCN1`: 1.94; for `Cc1cccc(C)c1NC(=O)CN`: 0.41. As to `OC1(c2ccccc2Cl)CCCCC1n1cncn1` (centres undefined), the logP is 2.68. To `O=C(COc1ccc(OCCNCC(O)COc2ccccc2)cc1)NCc1ccccc1` (centres undefined) belongs 3.2; to `c1ccc(-c2nccs2)cc1`, 2.77. The same measure for `CCN(CC)C(C)C(=O)Nc1c(C)cccc1C` (centres undefined): 2.73; for `CNC(=O)OC1OC(=O)C2C3C=CC(C3)C12` (centres undefined): 0.63. The same measure for `CCCn1c(=O)[nH]c(=O)c2[nH]cnc21`: 0.33. Take `CCCN(CCC)CC(=O)NCc1ccccc1`: the logP was determined as 3.11. To `COC1CC(OC2CCC3(C=O)C4CCC5(C)C(C6=CC(=O)OC6)CCC5(O)C4CCC3(O)C2)OC(C)C1O` (centres undefined) belongs 0.64. The same measure for `O=Cc1cccc(Cl)c1`: 2.26.
